Laboratory results published in US11399542B2, “Pesticidally active heterocyclic derivatives with sulfur containing substituents” (SYNGENTA PARTICIPATIONS AG, priority 2017, dated 2022).
Values belong to the compound of their own block, whether it stands above or below them.

Legend:
[1] = tested on: Myzus persicae (Green Peach Aphid); experiment: Example B5: Activity against Myzus persicae, sprayed sunflower leaf discs; type: in vivo; settings: foliar, 144 h, application rate 200 ppm, mixed-age aphids on sunflower leaf discs, 6 days after infestation
Procedure: (§1) Sunflower leaf discs were placed on agar in a 24-well microtiter plate and sprayed with aqueous test solutions prepared from 10′000 ppm DMSO stock solutions. After drying, the leaf discs were infested with an aphid population of mixed ages. The samples were assessed for mortality 6 days after infestation.

[2] = tested on: Myzus persicae (Green Peach Aphid); experiment: Example B6: Activity against Myzus persicae, systemic via roots of pea seedlings; type: in vivo; settings: 144 h, test rate 24 ppm, pea seedling roots in test solution, 6 days
Procedure: Roots of pea seedlings infested with an aphid population of mixed ages were placed directly in the aqueous test solutions prepared from 10′000 DMSO stock solutions. The samples were assessed for mortality 6 days after placing seedlings in test solutions.

[3] = tested on: Frankliniella occidentalis (Western Flower Thrips); experiment: Example B8: Activity against Frankliniella occidentalis, sprayed sunflower leaf discs; type: in vivo; settings: foliar, 168 h, application rate 200 ppm, mixed ages on sunflower leaf discs, 7 days after infestation
Procedure: as §1, with “in” for “in a”, “plates” for “plate”, “[…]” for “10′000 ppm”, “drying” for “drying,”, “a Frankliniella” for “an aphid”, “7” for “6”

[4] = tested on: Euschistus heros (Neotropical Brown Stink Bug); experiment: Example B9: Activity against Euschistus heros, sprayed soybean leaf; type: in vivo; settings: 120 h, application rate 200 ppm, N2 nymphs on soybean leaf, 5 days after infestation, read-out: effect in at least one of the two categories (mortality or growth inhibition)
Procedure: Soybean leaf on agar in 24-well microtiter plates were sprayed with aqueous test solutions prepared from 10′000 ppm DMSO stock solutions. After drying the leaf were infested with N2 nymphs. The samples were assessed for mortality and growth inhibition in comparison to untreated samples 5 days after infestation.

[5] = tested on: Plutella xylostella (Diamond Back Moth); experiment: Example B3: Activity against Plutella xylostella, artificial diet, L2 larvae; type: in vivo; settings: 120 h, application rate 200 ppm, L2 larvae on artificial diet, 5 days after infestation, read-out: effect in at least one of the two categories (mortality or growth inhibition)
Procedure: (§2) 24-well microtiter plates with artificial diet were treated with aqueous test solutions prepared from 10′000 ppm DMSO stock solutions by pipetting. After drying, the plates were infested with L2 larvae (10 to 15 per well). The samples were assessed for mortality and growth inhibition in comparison to untreated samples 5 days after infestation.

[6] = tested on: Bemisia tabaci (Cotton White Fly); experiment: Example B7: Activity against Bemisia tabaci, sprayed cotton leaf discs; type: in vivo; settings: foliar, 144 h, application rate 200 ppm, adult white flies on cotton leaf discs, 6 days after incubation
Procedure: Cotton leaf discs were placed on agar in 24-well microtiter plates and sprayed with aqueous test solutions prepared from 10′000 ppm DMSO stock solutions. After drying the leaf discs were infested with adult white flies. The samples were checked for mortality 6 days after incubation.

[7] = tested on: Spodoptera littoralis (Egyptian Cotton Leaf Worm); experiment: Example B1: Activity against Spodoptera littoralis, sprayed cotton leaf discs; type: in vivo; settings: foliar, 72 h, application rate 200 ppm, L1 larvae on cotton leaf discs, 3 days after infestation, read-out: control (at least one of mortality, anti-feedant effect, growth inhibition)
Procedure: Cotton leaf discs were placed onto agar in 24-well microtiter plates and sprayed with aqueous test solutions prepared from 10′000 ppm DMSO stock solutions. After drying the leaf discs were infested with five L1 larvae. The samples were assessed for mortality, anti-feeding effect, and growth inhibition in comparison to untreated samples 3 days after infestation. Control of Spodoptera littoralis by a test sample is given when at least one of the categories mortality, anti-feedant effect, and growth inhibition is higher than the untreated sample.

[8] = tested on: Diabrotica balteata (Corn Root Worm); experiment: Example B4: Activity against Diabrotica balteata, sprayed maize sprouts; type: in vivo; settings: 96 h, application rate 200 ppm, L2 larvae on maize sprouts, 4 days after infestation, read-out: effect in at least one of the two categories (mortality or growth inhibition)
Procedure: as §2, with “Maize sprouts placed onto an agar layer in 24-well” for “24-well”, “plates” for “plates with artificial diet”, “spraying.” for “pipetting.”, “(6” for “(10”, “10” for “15”, “4” for “5”

[9] = tested on: Plutella xylostella (Diamond Back Moth); experiment: Example B12: Activity against Plutella xylostella, artificial diet, eggs; type: in vivo; settings: 192 h, application rate 200 ppm, eggs on artificial diet, 8 days after infestation, read-out: effect in at least one of the two categories (mortality or growth inhibition)
Procedure: as §2, with “drying, Plutella eggs were pipetted through a plastic stencil onto a gel blotting paper and” for “drying,”, “plate was closed” for “plates were infested”, “it.” for “L2 larvae (10 to 15 per well).”, “8” for “5”

SMILES: CCS(=O)(=O)c1cc2c(cc1-c1nc3cc(C(F)(F)F)cnc3n1C)n(CS(C)(=O)=O)c(=O)n2C [Compound P16, 6-ethylsulfonyl-1-methyl-3-(methylsulfonylmethyl)-5-[3-methyl-6-(trifluoromethyl)imidazo[4,5-b]pyridine-2-yl]benzimidazol-2-one]
mortality at 200 ppm [1]: ≥ 80%
mortality at 24 ppm [2]: ≥ 80%
mortality at 200 ppm [3]: ≥ 80%
percent effect (mortality or growth inhibition) at 200 ppm [4]: ≥ 80%

SMILES: CCS(=O)(=O)c1cc2c(nc1-c1nc3cc(C(F)(F)F)ncc3n1C)n(C)c(=O)n2C [Compound P8, 6-ethylsulfonyl-1,3-dimethyl-5-[3-methyl-6-(trifluoromethyl)imidazo[4,5-c]pyridin-2-yl]imidazo[4,5-b]pyridin-2-one]
percent effect (mortality or growth inhibition) at 200 ppm [5]: ≥ 80%
mortality at 200 ppm [1]: ≥ 80%
mortality at 24 ppm [2]: ≥ 80%
mortality at 200 ppm [6]: ≥ 80%
mortality at 200 ppm [3]: ≥ 80%
percent effect (mortality or growth inhibition) at 200 ppm [4]: ≥ 80%

SMILES: CCS(=O)(=O)c1cc2c(nc1-c1nc3cc([S+]([O-])C(F)(F)F)ccc3o1)n(C)c(=O)n2C (stereo not drawn) [Compound P45, 6-ethylsulfonyl-1,3-dimethyl-5-[5-(trifluoromethylsulfinyl)-1,3-benzoxazol-2-yl]imidazo[4,5-b]pyridin-2-one]
percent control (mortality, anti-feedant effect or growth inhibition) at 200 ppm [7]: ≥ 80%
percent effect (mortality or growth inhibition) at 200 ppm [8]: ≥ 80%
mortality at 24 ppm [2]: ≥ 80%
mortality at 200 ppm [3]: ≥ 80%
percent effect (mortality or growth inhibition) at 200 ppm [4]: ≥ 80%
percent effect (mortality or growth inhibition) at 200 ppm [9]: ≥ 80%

melting point: 205 to 207 °C
SMILES: CCSc1cc2c(cc1-c1nc3cc(C(F)(F)F)ccc3o1)n(C)c(=O)n2C

SMILES: CCS(=O)(=O)c1cc2c(cc1-c1nc3cc(C(F)(F)F)cnc3n1C)n(C#N)c(=O)n2C [Compound P14, 5-ethylsulfonyl-3-methyl-6-[3-methyl-6-(trifluoromethyl)imidazo[4,5-b]pyridin-2-yl]-2-oxo-benzimidazole-1-carbonitrile]
mortality at 200 ppm [1]: ≥ 80%
mortality at 24 ppm [2]: ≥ 80%
mortality at 200 ppm [3]: ≥ 80%
percent effect (mortality or growth inhibition) at 200 ppm [4]: ≥ 80%

SMILES: CCS(=O)(=O)c1cc2c(nc1-c1nc3cc(C(F)(F)F)cnc3n1C)n(C)c(=O)n2C [Compound P22, 6-ethylsulfonyl-1,3-dimethyl-5-[3-methyl-6-(trifluoromethyl)imidazo[4,5-b]pyridine-2-yl]imidazo[4,5-b]pyridine-2-one]
percent control (mortality, anti-feedant effect or growth inhibition) at 200 ppm [7]: ≥ 80%
percent effect (mortality or growth inhibition) at 200 ppm [5]: ≥ 80%
percent effect (mortality or growth inhibition) at 200 ppm [8]: ≥ 80%
mortality at 200 ppm [1]: ≥ 80%
mortality at 24 ppm [2]: ≥ 80%
mortality at 200 ppm [6]: ≥ 80%
mortality at 200 ppm [3]: ≥ 80%
percent effect (mortality or growth inhibition) at 200 ppm [4]: ≥ 80%

SMILES: CCn1c(=O)n(C)c2cc(-c3nc4cc(C(F)(F)F)ncc4n3C)c(S(=O)(=O)CC)cc21 [Compound P4, 1-ethyl-6-ethylsulfonyl-3-methyl-5-[3-methyl-6-(trifluoromethyl)imidazo[4,5-c]pyridin-2-yl]benzimidazol-2-one]
percent effect (mortality or growth inhibition) at 200 ppm [5]: ≥ 80%
percent effect (mortality or growth inhibition) at 200 ppm [8]: ≥ 80%
mortality at 200 ppm [1]: ≥ 80%
mortality at 24 ppm [2]: ≥ 80%
mortality at 200 ppm [3]: ≥ 80%
percent effect (mortality or growth inhibition) at 200 ppm [4]: ≥ 80%

melting point: 206 to 208 °C
SMILES: CCSc1cc2c(cc1-c1nc3cc(SC(F)(F)F)ccc3o1)n(C)c(=O)n2C

SMILES: CCSc1cc2c(cc1-c1nc3cc(C(F)(F)F)cnc3n1C)n(CC)c(=O)n2C [Compound P7, 1-ethyl-5-ethylsulfanyl-3-methyl-6-[3-methyl-6-(trifluoromethyl)imidazo[4,5-b]pyridin-2-yl]benzimidazol-2-one]
percent effect (mortality or growth inhibition) at 200 ppm [5]: ≥ 80%
percent effect (mortality or growth inhibition) at 200 ppm [8]: ≥ 80%
percent effect (mortality or growth inhibition) at 200 ppm [4]: ≥ 80%

SMILES: CCS(=O)(=O)c1cc2c(nc1-c1nc3cc(SC(F)(F)F)ccc3n1C)n(C)c(=O)n2C [Compound P38, 6-ethylsulfonyl-1,3-dimethyl-5-[1-methyl-5-(trifluoromethyl-sulfanyl)benzimidazol-2-yl]imidazo[4,5-b]pyridin-2-one]
percent control (mortality, anti-feedant effect or growth inhibition) at 200 ppm [7]: ≥ 80%
percent effect (mortality or growth inhibition) at 200 ppm [8]: ≥ 80%
mortality at 200 ppm [1]: ≥ 80%
mortality at 24 ppm [2]: ≥ 80%
mortality at 200 ppm [6]: ≥ 80%
mortality at 200 ppm [3]: ≥ 80%
percent effect (mortality or growth inhibition) at 200 ppm [9]: ≥ 80%

melting point: 255 to 257 °C
SMILES: CCSc1cc2c(cc1-c1nc3cc(C(F)(F)F)cnc3n1C)n(C#N)c(=O)n2C

SMILES: CCS(=O)(=O)c1cc2c(nc1-c1nc3cc(S(=O)(=O)C(F)(F)F)ccc3n1C)n(C)c(=O)n2C [Compound P39, 6-ethylsulfonyl-1,3-dimethyl-5-[1-methyl-5-(trifluoromethyl-sulfonyl)benzimidazol-2-yl]imidazo[4,5-b]pyridine-2-one]
percent control (mortality, anti-feedant effect or growth inhibition) at 200 ppm [7]: ≥ 80%
mortality at 200 ppm [1]: ≥ 80%
mortality at 24 ppm [2]: ≥ 80%
mortality at 200 ppm [6]: ≥ 80%
percent effect (mortality or growth inhibition) at 200 ppm [4]: ≥ 80%
percent effect (mortality or growth inhibition) at 200 ppm [9]: ≥ 80%

SMILES: CCS(=O)(=O)c1cc2c(cc1-c1nc3cc(C(F)(F)F)ncc3n1C)n(C)c(=O)n2C [Compound P9, 5-ethylsulfonyl-1,3-dimethyl-6-[3-methyl-6-(trifluoromethyl)imidazo[4,5-c]pyridin-2-yl]benzimidazol-2-one]
mortality at 200 ppm [1]: ≥ 80%
mortality at 24 ppm [2]: ≥ 80%
mortality at 200 ppm [3]: ≥ 80%
percent effect (mortality or growth inhibition) at 200 ppm [4]: ≥ 80%

melting point: 186 to 188 °C
SMILES: CCSc1cc2c(cc1-c1nc3cc(C(F)(F)F)cnc3n1C)n(C)c(=O)n2CC

SMILES: CCS(=O)(=O)c1cc2c(cc1-c1nc3cc(SC(F)(F)F)ccc3n1C)n(C)c(=O)n2C [Compound P36, 5-ethylsulfonyl-1,3-dimethyl-6-[1-methyl-5-(trifluoromethyl-sulfanyl)benzimidazol-2-yl]benzimidazol-2-one]
percent effect (mortality or growth inhibition) at 200 ppm [8]: ≥ 80%
mortality at 200 ppm [1]: ≥ 80%
mortality at 24 ppm [2]: ≥ 80%
mortality at 200 ppm [6]: ≥ 80%
percent effect (mortality or growth inhibition) at 200 ppm [4]: ≥ 80%
percent effect (mortality or growth inhibition) at 200 ppm [9]: ≥ 80%

SMILES: CCS(=O)(=O)c1cc2c(cc1-c1nc3cc(C(F)(F)F)cnc3n1C)n(COC)c(=O)n2C [Compound P18, 5-ethylsulfonyl-1-(methoxy-methyl)-3-methyl-6-[3-methyl-6-(trifluoromethyl)imidazo[4,5-b]pyridine-2-yl]benzimidazol-2-one]
percent effect (mortality or growth inhibition) at 200 ppm [5]: ≥ 80%
percent effect (mortality or growth inhibition) at 200 ppm [8]: ≥ 80%
mortality at 200 ppm [1]: ≥ 80%
mortality at 24 ppm [2]: ≥ 80%
percent effect (mortality or growth inhibition) at 200 ppm [4]: ≥ 80%
